In data set [1] the target is Vascular endothelial growth factor receptor 3 (Homo sapiens, UniProt P35916). The experiment in a line: Inhibition of FLT4 (unknown origin).
Data set [2] addresses Mitogen-activated protein kinase 1 (Homo sapiens) (UniProt P28482). Description: Inhibition of ERK2 (unknown origin) at 1 uM relative to control.
The target in data set [3] is MAP kinase-activated protein kinase 2 (Homo sapiens) (UniProt P49137). The experiment in a line: Inhibition of MAPKAPK2 (unknown origin) at 1 uM relative to control.
The target of data set [4] is Proto-oncogene tyrosine-protein kinase receptor Ret (Homo sapiens) (UniProt P07949). The experiment in a line: Inhibition of RET (unknown origin) at 1 uM relative to control.
Data set [5] can be described thus: Reductive activation in PBS at pH 7.4 assessed as 2-amino-3-[2-amino-5-[amino(carboxy)methyl]sulfanyl-1-[2-[2-[2-methoxy-5-[[4-(1-methylindol-3-yl)pyrimidin-2-yl]amino]phenoxy]ethoxy]ethyl]imidazol-4-yl]sulfanyl-propanoic acid metabolite formation at 1 uM incubated for 30 mins in presence of cysteine, NADPH and nitroreductase under hypoxia condition by MS/MS analysis. As to conditions: buffer, pH 7.4, 0.5 h. Type of data set: ADME.

The nature of data set [6]: Ratio of IC50 for antiproliferative activity against human HCC827 cells harboring EGFR del19 mutant under normoxia condition to IC50 for antiproliferative activity against human HCC827 cells harboring EGFR del19 mutant under hypoxia condition. Format: functional.
The next data set has as its system HCC827. The experiment in a line: Antiproliferative activity against human HCC827 cells harboring EGFR del19 mutant assessed as inhibition of cell growth incubated for 72 hrs under hypoxia condition by SRB assay. Format: functional, cell-based. The note with it: HCC827, 72 h. Background: The SRB assay estimates cell density from bound dye.
The target in data set [7] is Mast/stem cell growth factor receptor Kit (Homo sapiens) (UniProt P10721). Description: Inhibition of KIT (unknown origin) at 1 uM relative to control.
The target of data set [8] is Tyrosine-protein kinase JAK2 (Homo sapiens, UniProt O60674). The experiment in a line: Inhibition of JAK2 (unknown origin) at 1 uM relative to control.
Data set [9] addresses Proto-oncogene tyrosine-protein kinase Src (Homo sapiens) (UniProt P12931). The experiment in a line: Inhibition of SRC (unknown origin) at 1 uM relative to control.
The target of data set [10] is Receptor tyrosine-protein kinase erbB-2 (Homo sapiens) (UniProt P04626). Description: Inhibition of HER2 (unknown origin) at 1 uM relative to control.
The species named for a further data set is Homo sapiens. Description: Inhibition of ABL (unknown origin) at 1 uM relative to control.
The target of data set [11] is Vascular endothelial growth factor receptor 2 (Homo sapiens) (UniProt P35968). Description: Inhibition of KDR (unknown origin) at 1 uM relative to control.
A further data set relates to NCI-H1975. Description: Antiproliferative activity against human NCI-H1975 cells harboring EGFR L858R/T790M mutant assessed as inhibition of cell growth incubated for 72 hrs under normoxia condition by SRB assay. Format: functional, cell-based. The note with it: NCI-H1975, 72 h.

pIC50: −log10 of the molar value.

MAP kinase-activated protein kinase 2 (Homo sapiens), sequence (P49137 whole entry, looked up): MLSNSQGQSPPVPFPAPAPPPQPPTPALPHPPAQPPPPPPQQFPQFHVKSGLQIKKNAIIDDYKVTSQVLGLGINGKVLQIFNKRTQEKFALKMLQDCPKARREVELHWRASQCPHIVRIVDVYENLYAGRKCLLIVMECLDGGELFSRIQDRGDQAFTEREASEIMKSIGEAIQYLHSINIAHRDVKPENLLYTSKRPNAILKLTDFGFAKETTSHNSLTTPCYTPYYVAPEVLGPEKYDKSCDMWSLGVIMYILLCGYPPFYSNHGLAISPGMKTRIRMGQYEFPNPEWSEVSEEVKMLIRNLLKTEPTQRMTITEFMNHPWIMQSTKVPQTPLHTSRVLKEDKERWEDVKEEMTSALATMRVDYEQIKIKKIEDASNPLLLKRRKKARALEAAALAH
Tyrosine-protein kinase JAK2, sequence (O60674 whole entry): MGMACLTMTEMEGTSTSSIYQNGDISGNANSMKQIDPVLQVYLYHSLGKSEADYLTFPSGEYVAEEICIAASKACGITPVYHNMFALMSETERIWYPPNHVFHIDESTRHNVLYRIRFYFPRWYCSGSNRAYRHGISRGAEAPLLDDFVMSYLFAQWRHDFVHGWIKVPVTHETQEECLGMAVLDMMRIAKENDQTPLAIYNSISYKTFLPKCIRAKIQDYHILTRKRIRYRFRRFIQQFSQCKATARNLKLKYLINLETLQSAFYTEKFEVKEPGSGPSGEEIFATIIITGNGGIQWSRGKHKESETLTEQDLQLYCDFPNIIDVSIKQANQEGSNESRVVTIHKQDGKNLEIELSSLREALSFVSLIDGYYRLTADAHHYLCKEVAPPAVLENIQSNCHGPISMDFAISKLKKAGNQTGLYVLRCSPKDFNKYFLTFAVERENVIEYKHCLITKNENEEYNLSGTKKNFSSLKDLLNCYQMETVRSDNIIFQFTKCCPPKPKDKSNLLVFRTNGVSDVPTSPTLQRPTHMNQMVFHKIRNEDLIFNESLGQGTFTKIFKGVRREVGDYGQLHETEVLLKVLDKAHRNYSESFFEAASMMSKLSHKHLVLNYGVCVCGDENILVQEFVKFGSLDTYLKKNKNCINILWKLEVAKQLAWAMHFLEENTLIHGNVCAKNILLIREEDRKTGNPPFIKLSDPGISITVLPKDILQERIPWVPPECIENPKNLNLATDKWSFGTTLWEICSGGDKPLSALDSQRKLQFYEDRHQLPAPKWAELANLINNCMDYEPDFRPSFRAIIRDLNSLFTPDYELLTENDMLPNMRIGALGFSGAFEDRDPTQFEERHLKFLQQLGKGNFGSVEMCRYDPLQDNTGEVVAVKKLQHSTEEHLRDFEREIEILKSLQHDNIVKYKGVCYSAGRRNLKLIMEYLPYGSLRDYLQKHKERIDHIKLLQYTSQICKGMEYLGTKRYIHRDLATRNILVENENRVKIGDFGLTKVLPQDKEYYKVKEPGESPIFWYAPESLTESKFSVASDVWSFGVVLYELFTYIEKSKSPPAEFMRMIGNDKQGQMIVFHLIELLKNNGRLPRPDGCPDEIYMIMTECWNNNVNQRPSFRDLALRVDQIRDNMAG
Proto-oncogene tyrosine-protein kinase receptor Ret (Homo sapiens), sequence (P07949 whole entry): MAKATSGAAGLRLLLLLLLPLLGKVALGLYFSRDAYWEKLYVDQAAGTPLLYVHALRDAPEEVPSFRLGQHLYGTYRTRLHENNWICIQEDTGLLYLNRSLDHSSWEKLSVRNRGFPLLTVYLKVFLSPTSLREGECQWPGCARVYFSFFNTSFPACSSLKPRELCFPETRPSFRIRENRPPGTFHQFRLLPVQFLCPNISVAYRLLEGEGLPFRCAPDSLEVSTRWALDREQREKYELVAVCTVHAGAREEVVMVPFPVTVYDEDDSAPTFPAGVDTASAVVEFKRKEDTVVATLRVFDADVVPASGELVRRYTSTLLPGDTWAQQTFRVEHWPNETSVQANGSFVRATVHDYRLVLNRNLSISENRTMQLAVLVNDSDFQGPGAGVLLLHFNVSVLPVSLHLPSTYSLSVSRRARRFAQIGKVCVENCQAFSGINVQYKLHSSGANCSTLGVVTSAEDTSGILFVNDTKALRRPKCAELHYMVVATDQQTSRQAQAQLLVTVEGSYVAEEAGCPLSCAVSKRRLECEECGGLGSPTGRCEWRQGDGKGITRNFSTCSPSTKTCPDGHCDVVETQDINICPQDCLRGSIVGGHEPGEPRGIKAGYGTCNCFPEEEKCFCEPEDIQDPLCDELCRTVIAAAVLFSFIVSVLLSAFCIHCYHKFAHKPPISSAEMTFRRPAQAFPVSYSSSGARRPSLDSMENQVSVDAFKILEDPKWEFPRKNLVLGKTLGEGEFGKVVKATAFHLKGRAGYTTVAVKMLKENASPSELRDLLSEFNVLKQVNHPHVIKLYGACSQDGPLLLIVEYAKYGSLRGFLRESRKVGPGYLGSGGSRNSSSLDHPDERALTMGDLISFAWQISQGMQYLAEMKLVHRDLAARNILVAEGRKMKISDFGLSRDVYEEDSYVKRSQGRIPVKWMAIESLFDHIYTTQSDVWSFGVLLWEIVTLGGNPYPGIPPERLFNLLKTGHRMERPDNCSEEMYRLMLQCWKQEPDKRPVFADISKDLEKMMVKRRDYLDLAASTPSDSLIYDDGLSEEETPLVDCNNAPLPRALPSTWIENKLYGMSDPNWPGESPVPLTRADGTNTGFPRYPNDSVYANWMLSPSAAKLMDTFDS
Receptor tyrosine-protein kinase erbB-2 (Homo sapiens), sequence (P04626 whole entry): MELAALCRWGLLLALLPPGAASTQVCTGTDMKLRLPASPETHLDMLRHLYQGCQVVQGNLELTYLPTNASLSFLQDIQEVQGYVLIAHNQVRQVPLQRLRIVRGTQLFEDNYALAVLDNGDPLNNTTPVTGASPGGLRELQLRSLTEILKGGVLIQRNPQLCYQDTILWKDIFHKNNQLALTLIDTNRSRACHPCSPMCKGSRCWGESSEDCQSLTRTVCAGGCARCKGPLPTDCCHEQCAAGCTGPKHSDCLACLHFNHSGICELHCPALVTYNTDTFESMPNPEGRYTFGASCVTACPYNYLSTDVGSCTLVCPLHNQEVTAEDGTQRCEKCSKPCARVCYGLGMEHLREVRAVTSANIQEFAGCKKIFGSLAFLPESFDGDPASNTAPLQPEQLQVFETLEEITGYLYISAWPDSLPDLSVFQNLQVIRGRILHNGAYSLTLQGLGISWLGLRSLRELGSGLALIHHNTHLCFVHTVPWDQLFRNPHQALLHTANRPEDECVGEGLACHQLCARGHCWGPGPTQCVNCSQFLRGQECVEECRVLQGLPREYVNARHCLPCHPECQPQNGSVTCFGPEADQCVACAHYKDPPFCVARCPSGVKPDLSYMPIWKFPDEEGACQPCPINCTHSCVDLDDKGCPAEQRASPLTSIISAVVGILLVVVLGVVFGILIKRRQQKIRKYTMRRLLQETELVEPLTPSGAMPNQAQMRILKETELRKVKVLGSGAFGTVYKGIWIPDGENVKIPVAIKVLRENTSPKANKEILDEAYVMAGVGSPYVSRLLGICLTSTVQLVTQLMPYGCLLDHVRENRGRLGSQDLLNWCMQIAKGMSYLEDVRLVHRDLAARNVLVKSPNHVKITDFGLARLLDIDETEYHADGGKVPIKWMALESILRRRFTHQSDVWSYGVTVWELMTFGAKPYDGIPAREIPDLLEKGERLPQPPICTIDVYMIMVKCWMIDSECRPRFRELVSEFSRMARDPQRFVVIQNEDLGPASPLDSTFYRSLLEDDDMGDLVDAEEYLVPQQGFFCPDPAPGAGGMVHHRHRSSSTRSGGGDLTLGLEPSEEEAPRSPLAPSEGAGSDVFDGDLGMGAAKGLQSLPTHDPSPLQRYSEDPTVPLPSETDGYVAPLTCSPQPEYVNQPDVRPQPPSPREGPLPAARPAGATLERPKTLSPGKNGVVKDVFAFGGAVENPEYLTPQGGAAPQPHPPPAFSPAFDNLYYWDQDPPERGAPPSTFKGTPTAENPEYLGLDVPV
Mast/stem cell growth factor receptor Kit (Homo sapiens), sequence (P10721 whole entry): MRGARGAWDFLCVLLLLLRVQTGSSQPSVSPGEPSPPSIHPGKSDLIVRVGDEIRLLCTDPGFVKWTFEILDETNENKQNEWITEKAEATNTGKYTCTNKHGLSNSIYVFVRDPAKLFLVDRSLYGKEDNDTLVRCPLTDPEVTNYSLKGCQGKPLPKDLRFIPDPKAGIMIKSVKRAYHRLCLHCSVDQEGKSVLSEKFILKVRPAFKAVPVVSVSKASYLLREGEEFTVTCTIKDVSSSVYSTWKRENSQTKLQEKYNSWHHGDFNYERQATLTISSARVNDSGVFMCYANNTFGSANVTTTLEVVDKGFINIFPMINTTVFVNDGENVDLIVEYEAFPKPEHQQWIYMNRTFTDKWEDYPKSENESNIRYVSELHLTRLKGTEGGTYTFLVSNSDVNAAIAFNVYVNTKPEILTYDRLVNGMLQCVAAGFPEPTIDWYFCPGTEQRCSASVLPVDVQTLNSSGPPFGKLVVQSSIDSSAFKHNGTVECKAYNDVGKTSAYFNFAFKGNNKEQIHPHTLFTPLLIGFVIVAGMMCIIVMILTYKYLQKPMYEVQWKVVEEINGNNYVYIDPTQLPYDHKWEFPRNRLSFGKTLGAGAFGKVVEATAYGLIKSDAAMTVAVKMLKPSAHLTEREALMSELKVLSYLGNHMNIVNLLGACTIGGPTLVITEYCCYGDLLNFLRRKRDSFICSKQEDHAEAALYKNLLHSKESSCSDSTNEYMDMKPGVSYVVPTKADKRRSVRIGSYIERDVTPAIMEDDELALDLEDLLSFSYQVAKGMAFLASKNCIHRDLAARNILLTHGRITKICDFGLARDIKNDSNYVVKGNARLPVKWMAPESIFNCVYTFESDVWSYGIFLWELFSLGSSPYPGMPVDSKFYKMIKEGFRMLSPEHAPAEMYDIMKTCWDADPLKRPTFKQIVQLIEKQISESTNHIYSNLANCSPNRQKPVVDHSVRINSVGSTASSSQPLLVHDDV

Regarding `COc1ccc(Nc2nccc(-c3cn(C)c4ccccc34)n2)cc1OCCOCCn1ccnc1[N+](=O)[O-]`, the negative logarithm of the IC50 (pIC50) (commonly the IC50 on a negative log10 scale, so that one unit is a factor of ten) was 6.64 in [1], 8.28 with HCC827 and 7.58 in the data set with NCI-H1975. In addition, the inhibition (in general, the drop in the measured response relative to a control, in per cent) in data set [2] was 32.4%; in [3] it was 17.4%; in [4] it was -0.41%; in [7] it was 38.1%; in data set [8], 79.2%; in data set [9] it was 36.5%. The inhibition in [10] turned out to be 11.8%; in the data set filed under Homo sapiens it was 23.9%; in data set [11], 50%. Further, in [5], the Drug metabolism result is “Metabolite_Detected”. Also, the “Ratio IC50” value in data set [6] turned out to be 4.75.

The values above are taken from ChEMBL document CHEMBL5325467, “Discovery of novel hypoxia-activated, nitroimidazole constructed multi-target kinase inhibitors on the basis of AZD9291 for the treatment of human lung cancer” (Bioorg Med Chem, 2023).
